In patent US11739069B2, “Modulators of resistant androgen receptor” (priority 2012, dated 2023):
Changes are numbered by the printed parent chain. “Also recorded” adds a separate entry of the source.

Experiments:
AR F876L [1] = biological target: T1, AR F876L (Homo sapiens, UniProt P10275, DEL79-80/DUP473-473/F877L); assay: AR luciferase reporter assay, AR F876L versus AR WT (FIG. 26); format: cell-based
T1 construct: expressed in transfected cells
T1 sequence (P10275 with tags, fused parts or gaps DEL79-80/DUP473-473/F877L): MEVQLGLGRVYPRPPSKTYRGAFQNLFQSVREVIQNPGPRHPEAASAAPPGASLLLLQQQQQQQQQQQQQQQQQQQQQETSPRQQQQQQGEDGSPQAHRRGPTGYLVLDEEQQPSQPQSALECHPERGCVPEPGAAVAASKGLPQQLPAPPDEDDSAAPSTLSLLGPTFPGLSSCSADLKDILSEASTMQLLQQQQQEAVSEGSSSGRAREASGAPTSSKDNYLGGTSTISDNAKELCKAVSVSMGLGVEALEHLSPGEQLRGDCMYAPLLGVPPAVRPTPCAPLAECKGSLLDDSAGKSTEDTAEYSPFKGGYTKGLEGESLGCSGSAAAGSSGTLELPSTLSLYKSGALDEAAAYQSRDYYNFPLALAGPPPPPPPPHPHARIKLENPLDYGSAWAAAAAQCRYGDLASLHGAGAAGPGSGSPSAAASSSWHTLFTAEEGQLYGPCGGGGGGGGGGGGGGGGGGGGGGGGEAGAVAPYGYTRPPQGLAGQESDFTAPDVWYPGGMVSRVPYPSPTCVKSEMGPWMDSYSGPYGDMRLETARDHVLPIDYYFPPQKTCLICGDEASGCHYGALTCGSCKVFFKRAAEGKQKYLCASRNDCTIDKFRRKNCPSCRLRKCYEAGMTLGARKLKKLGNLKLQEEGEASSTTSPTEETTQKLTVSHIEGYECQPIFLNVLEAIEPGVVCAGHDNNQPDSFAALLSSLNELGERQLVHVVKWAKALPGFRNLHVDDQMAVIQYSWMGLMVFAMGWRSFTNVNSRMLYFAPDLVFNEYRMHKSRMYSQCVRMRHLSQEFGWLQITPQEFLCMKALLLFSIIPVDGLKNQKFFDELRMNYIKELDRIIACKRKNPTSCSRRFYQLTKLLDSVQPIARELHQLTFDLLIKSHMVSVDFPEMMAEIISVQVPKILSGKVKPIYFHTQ
Procedure: (§1) Compounds of the present invention were assayed in an in vitro AR luciferase reporter assay reporter assay, which can be used to determine the effect of compounds on AR transcriptional activity. CV1 cells were engineered to express an AR-regulated luciferase reporter, such that luciferase expression indicates AR transcriptional activity. A representative procedure for this assay follows.
(§2) CV1 cells (10^6 cells/10 cm plate) were cotransfected with 50 ng of SV40 Renilla Luciferase, 5 ug of ARE(4X)-Luciferase, and […] of one pWZL-AR expression construct using Lipofectamine 2000 (Invitrogen). Transfection media was removed 4-6 hours later and replaced with phenol red free DME-HG containing 10% charcoal stripped serum. The following day each plate was split into 24- or 48-well plates, in 10% CSS media, containing the indicated drugs in triplicate. Twenty-four to forty-eight hours later, luciferase activity was assayed using Dual-Luciferase Reporter Assay System (Promega) on a 96-well luminometer (Turner Biosystems). In some embodiments, a provided compound is considered to be a modulator of a tested AR if it results in similar effects on induced expression of luciferase in the luciferase reporter assay as compared with a reference androgen or anti-androgen.

[2] = system: CWR22PC cells expressing wild type androgen receptor; assay: In vitro cell viability assay (CellTiterGLO), CWR22PC cells expressing wild-type AR (FIG. 18); format: cell-based; conditions: 10 uM, days 1, 4, 7
Procedure: (§3) Compounds of the present invention were also assayed in an in vitro cell viability assay in CWR22PC cancer cells. A representative procedure follows. CWR22PC cells ectopically expressing wild-type AR or AR F876L, cultured in full-serum containing media, were treated with vehicle (DMSO) or 10 uM of enzalutamide or compound I-1. CellTiterGLO assay was performed on days 1, 4, and 7 to determine cell viability. Results of a cell viability assay in CWR22PC cells are depicted in FIG. 18. On the y-axis RLU means relative light units. More light […] means more viable cells. In some embodiments, a provided compound is considered to be a modulator of a tested AR if it results in similar effects on cell viability as compared with a reference androgen or anti-androgen.

[3] = system: VCaP cells expressing wild type androgen receptor; assay: In vitro cell viability assay, VCaP cells expressing wild type AR (FIG. 17); format: cell-based
[4] = system: CWR22PC cells expressing mutant F876L androgen receptor; assay: In vitro cell viability assay (CellTiterGLO), CWR22PC cells expressing AR F876L (FIG. 18); format: cell-based; conditions: 10 uM, days 1, 4, 7
Procedure: as §3

AR = biological target: T2, AR (Homo sapiens, UniProt P10275, DEL79-80/DUP473-473); assay: AR luciferase reporter assay, competition with DHT (FIG. 25); format: cell-based
T2 construct: expressed in transfected cells; host or cells: CV1 cells
T2 sequence (P10275 with tags, fused parts or gaps DEL79-80/DUP473-473): T1 sequence (P10275 with tags, fused parts or gaps DEL79-80/DUP473-473/F877L) with L876F
Procedure: as §1, §2

AR F876L [5] = biological target: T1, AR F876L; assay: AR signaling and PARP cleavage in cells expressing AR F876L (FIG. 27); format: cell-based
[6] = system: VCaP cells expressing mutant F876L androgen receptor; assay: In vitro cell viability assay, VCaP cells expressing mutant F876L AR (FIG. 17); format: cell-based
AR WT [7] = assay: AR signaling and PARP cleavage in cells expressing AR WT (FIG. 27); format: cell-based
AR WT [8] = conditions: LNCaP cells ectopically expressing AR WT; compared with AR F876L cells
Procedure: The cells were propagated in RPMI media supplemented with 10% CSS (charcoal-stripped, dextran-treated fetal bovine serum). Cells were trypsinized, washed in PBS, and triplicate cell samples were mixed with 20,000 cpm 18F-FDHT and increasing amounts of cold competitor (0.1 nM to 10 uM). The solutions were shaken on an orbital shaker at ambient temperature, and after 1 hour the cells were isolated and washed with ice-cold Tris-buffered saline using a Brandel cell harvester (Gaithersburg, Md.). All the isolated cell samples were counted using a scintillation counter, with appropriate standards of total activity and blank controls, and the specific uptake of ^18F-FDHT determined.

mutant AR T877A [9] = biological target: T3, mutant AR T877A (Homo sapiens, UniProt P10275, DEL79-80/DUP473-473/T878A); conditions: cited from earlier work
T3 sequence (P10275 with tags, fused parts or gaps DEL79-80/DUP473-473/T878A): T1 sequence (P10275 with tags, fused parts or gaps DEL79-80/DUP473-473/F877L) with L876F, T877A

mutant AR T877A [10] = biological target: T3, mutant AR T877A; conditions: Ozers et al., Biochemistry (2007) 46, 683; cited from earlier work

CNC(=O)c1ccc(N2C(=S)N(c3ccc(C#N)c(C(F)(F)F)c3)C(=O)[C@@]23CCCC(C)(C)C3)cc1F (stereo in doubt) [Compound I-1, 4-(3-(4-cyano-3-(trifluoromethyl)phenyl)-7,7-dimethyl-4-oxo-2-thioxo-1,3-diazaspiro[4.5]decan-1-yl)-2-fluoro-N-methylbenzamide]
potency as agonist for AR F876L compared with AR WT (AR F876L [1]): more potent agonist for AR F876L than AR WT
ability to kill or inhibit the growth of cells [2]: kill or inhibit the growth of CWR22PC cells
ability to kill or inhibit the growth of cells [3]: kill or inhibit the growth of VCaP cells
ability to kill or inhibit the growth of cells [4]: kill or inhibit the growth of CWR22PC cells
competition with dihydrotestosterone (DHT) for AR binding and induction of AR-regulated luciferase (AR): effectively competes with dihydrotestosterone (DHT)
induction of PARP cleavage (AR F876L [5]): induce PARP cleavage
inhibition of AR signaling (AR F876L [5]): inhibit AR signaling
ability to kill or inhibit the growth of cells [6]: kill or inhibit the growth of VCaP cells
induction of PARP cleavage (AR WT [7]): induce PARP cleavage
inhibition of AR signaling (AR WT [7]): inhibit AR signaling

C[C@]12CCC(=O)C[C@@H]1CC[C@@H]1[C@@H]2CC[C@]2(C)[C@@H](O)CC[C@@H]12 [DHT, dihydrotestosterone]
IC50 for displacement of 18F-FDHT (AR WT [8]): comparable IC50

CC(C)(O)C(=O)Nc1ccc([N+](=O)[O-])c(C(F)(F)F)c1 [hydroxyflutamide]
agonist activity on mutant AR (mutant AR T877A [9]): act as AR agonists; also recorded: confers agonism
binding affinity to mutant AR T877A compared with AR WT (mutant AR T877A [10]): higher affinity
